The results in this text go back to patent US20220363686A1 (AiCuris GmbH & Co. KG, priority 2018, published 2022).

Data set [1] has as its target HBV core protein (C-terminal truncated core protein containing 149 amino acids of the N-terminal assembly domain) (UniProt P03146). Briefly: Biochemical capsid assembly assay (fluorescence quenching). Also noted: rows headed: Assembly Activity; other: BODIPY-FL labelled core protein, assembly started with NaCl, read after 6 min. The note with it: read-out: Assembly Activity; BODIPY-FL labelled core protein, assembly started with NaCl, read after 6 min. The protocol:
The screening for assembly effector activity was done based on a fluorescence quenching assay published by Zotnick et al. (2007). The C-terminal truncated core protein containing 149 amino acids of the N-terminal assembly domain fused to a unique cysteine residue at position 150 and was expressed in E. coli using the pET expression system (Merck Chemicals, Darmstadt). Purification of core dimer protein was performed using a sequence of size exclusion chromatography steps. In brief, the cell pellet from 1 L BL21 (DE3) Rosetta2 culture expressing the coding sequence of core protein cloned NdeI/XhoI into expression plasmid pET21b was treated for 1 h on ice with a native lysis buffer (Qproteome Bacterial Protein Prep Kit; Qiagen, Hilden). After a centrifugation step the supernatant was precipitated during 2 h stirring on ice with 0.23 g/ml of solid ammonium sulfate. Following further centrifugation the resulting pellet was resolved in buffer A (100 mM Tris, pH 7.5; 100 mM NaCl; 2 mM DTT) and was subsequently loaded onto a buffer A equilibrated CaptoCore 700 column (GE HealthCare, Frankfurt). The column flow through containing the assembled HBV capsid was dialyzed against buffer N (50 mM NaHCO3 pH 9.6; 5 mM DTT) before urea was added to a final concentration of 3M to dissociate the capsid into core dimers for 1.5 h on ice. The protein solution was then loaded onto a IL Sephacryl S300 column. After elution with buffer N core dimer containing fractions were identified by SDS-PAGE and subsequently pooled and dialyzed against 50 mM HEPES pH 7.5; 5 mM DTT. To improve the assembly capacity of the purified core dimers a second round of assembly and disassembly starting with the addition of 5 M NaCl and including the size exclusion chromatography steps described above was performed. From the last chromatography step core dimer containing fractions were pooled and stored in aliquots at concentrations between 1.5 to 2.0 mg/ml at −80° C.
Immediately before labelling the core protein was reduced by adding freshly prepared DTT in a final concentration of 20 mM. After 40 min incubation on ice storage buffer and DTT was removed using a Sephadex G-25 column (GE HealthCare, Frankfurt) and 50 mM HEPES, pH 7.5. For labelling 1.6 mg/ml core protein was incubated at 4° C. and darkness overnight with BODIPY-FL maleimide (Invitrogen, Karlsruhe) in a final concentration of 1 mM. After labelling the free dye was removed by an additional desalting step using a Sephadex G-25 column. Labelled core dimers were stored in aliquots at 4° C. In the dimeric state the fluorescence signal of the labelled core protein is high and is quenched during the assembly of the core dimers to high molecular capsid structures. The screening assay was performed in black 384 well microtiter plates in a total assay volume of 10 μl using 50 mM HEPES pH 7.5 and 1.0 to 2.0 μM labelled core protein. Each screening compound was added in 8 different concentrations using a 0.5 log-unit serial dilution starting at a final concentration of 100 μM, 31.6 μM or 10 μM, In any case the DMSO concentration over the entire microtiter plate was 0.5%. The assembly reaction was started by the injection of NaCl to a final concentration of […] which induces the assembly process to approximately 25% of the maximal quenched signal. 6 min after starting the reaction the fluorescence signal was measured using a Clariostar plate reader (BMG Labtech, Ortenberg) with an excitation of 477 nm and an emission of 525 nm. As 100% and 0% assembly control HEPES buffer containing 2.5 M and 0 M NaCl was used. Experiments were performed thrice in triplicates. EC50 values were calculated by non-linear regression analysis using the Graph Pad Prism 6 software (GraphPad Software, La Jolla, USA).

The subject of data set [2] is HBV. In words: Determination of HBV DNA from the supernatants of HepAD38 cells (anti-HBV activity). In kind it is cell-based, hepatitis B virus. The note with it: Hepatitis B virus, HePAD38, 144 h, HBV DNA in HepAD38 supernatant, day 6, qPCR, read-out: Cell Activity. As for the experimental part: The anti-HBV activity was analysed in the stable transfected cell line HepAD38, which has been described to secrete high levels of HBV virion particles (Ladner et al., 1997). In brief, HepAD38 cells were cultured at 37° C. at 5% CO2 and 95% humidity in 200 μl maintenance medium, which was Dulbecco's modified Eagle's medium/Nutrient Mixture F-12 (Gibco, Karlsruhe), 10% fetal bovine serum (PAN Biotech Aidenbach) supplemented with 50 μg/ml penicillin/streptomycin (Gibco, Karlsruhe), 2 mM L-glutamine (PAN Biotech, Aidenbach), 400 μg/ml G418 (AppliChem, Darmstadt) and 0.3 μg/ml tetracycline. Cells were subcultured once a week in a 1:5 ratio, but were usually not passaged more than ten times. For the assay 60,000 cells were seeded in maintenance medium without any tetracycline into each well of a 96-well plate and treated with serial half-log dilutions of test compound. To minimize edge effects the outer 36 wells of the plate were not used but were filled with assay medium. On each assay plate six wells for the virus control (untreated HepAD38 cells) and six wells for the cell control (HepAD38 cells treated with 0.3 μg/ml tetracycline) were allocated, respectively. In addition, one plate set with reference inhibitors like BAY 41-4109, entecavir, and lamivudine instead of screening compounds were prepared in each experiment. In general, experiments were performed thrice in triplicates. At day 6 HBV DNA from 100 μl filtrated cell culture supernatant (AcroPrep Advance 96 Filter Plate, […] Supor membran, PALL GmbH, Dreieich) was automatically purified on the MagNa Pure LC instrument using the MagNA Pure 96 DNA and Viral NA Small Volume Kit (Roche Diagnostics, Mannheim) according to the instructions of the manufacturer. EC50 values were calculated from relative copy numbers of HBV DNA In brief, 5 μl of the 100 μl eluate containing HBV DNA were subjected to PCR LC480 Probes Master Kit (Roche) together with 1 μM antisense primer […], 0.5 μM sense primer […], 0.3 μM hybprobes […]-FL and LC640-[…]-PH (TIBMolBiol, Berlin) to a final volume of 12.5 μl. The PCR was performed on the Light Cycler 480 real time system (Roche Diagnostics, Mannheim) using the following protocol: Pre-incubation for 1 min at 95° C., amplification: 40 cycles×(10 sec at 95° C., 50 sec at 60° C., 1 sec at 70° C.), cooling for 10 sec at 40° C. Viral load was quantitated against known standards using HBV plasmid DNA of pCH-9/3091 (Nassal et al., 1990, Cell 63: 1357-1363) and the LightCycler 480 SW 1.5 software (Roche Diagnostics, Mannheim) and ECso values were calculated using non-linear regression with GraphPad Prism 6 (GraphPad Software Inc., La Jolla, USA).

Data set [3] can be described thus: Cell viability assay (AlamarBlue). The note with it: human, HepAD38 cells.

Read-outs that look alike come from different tables or passages of the source. Where only a bound is given, the exact number is not on record here.

HBV core protein (C-terminal truncated core protein containing 149 amino acids of the N-terminal assembly domain), sequence (P03146 whole entry, the tested form may be a part): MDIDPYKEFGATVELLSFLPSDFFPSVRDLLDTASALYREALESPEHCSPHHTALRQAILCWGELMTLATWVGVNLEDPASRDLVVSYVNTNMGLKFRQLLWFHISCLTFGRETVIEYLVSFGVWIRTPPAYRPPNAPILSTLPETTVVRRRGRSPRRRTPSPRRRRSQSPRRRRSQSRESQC

Consider `CN(C(=O)c1cnn2c1CN(C(=O)c1cc3ccccc3[nH]1)CC2)C1([C@H]2OC[C@H](N)CO2)CC1` [Example 141, 5-(1H-indole-2-carbonyl)-N-methyl-N-{1-[(2r,5r)-5-amino-1,3-dioxan-2-yl]cyclopropyl}-4H,5H,6H,7H-pyrazolo[1,5-a]pyrazine-3-carboxamide], for which, in data set [1], the IC50 is < 5 µM. The EC50 in data set [2] is < 1 µM. The CC50 at 6 days in data set [3] is > 10 µM.
Take `CN(Cc1ccnn1C)C(=O)c1cnn2c1CN(C(=O)c1cc3ccccc3[nH]1)CC2` [Example 55, 5-(1H-indole-2-carbonyl)-N-methyl-N-[(1-methyl-1H-pyrazol-5-yl)methyl]-4H,5H,6H,7H-pyrazolo[1,5-a]pyrazine-3-carboxamide]: in data set [1], the IC50 is < 5 µM. In addition, in data set [2], the EC50 is < 1 µM. Also, the CC50 at 6 days in data set [3] was > 10 µM.
Consider `CC1Cn2ncc(C(=O)N(C)C3CC3)c2CN1C(=O)c1cc2ccccc2[nH]1` (single isomer, unassigned) [Example 18, N-cyclopropyl-5-(1H-indole-2-carbonyl)-N,6-dimethyl-4H,5H,6H,7H-pyrazolo[1,5-a]pyrazine-3-carboxamide], for which the IC50 in data set [1] was < 100 µM. Besides, the EC50 in data set [2] is 1 to 10 µM. For the same molecule, in data set [3], the CC50 at 6 days is > 10 µM.
With `Cc1c(F)ccc2[nH]c(C(=O)N3Cc4c(C(=O)N[C@H](C)C(F)(F)F)cnn4CC3C)cc12` (stereo partly drawn) [Example 144, 5-(5-fluoro-4-methyl-1H-indole-2-carbonyl)-6-methyl-N-[(2R)-1,1,1-trifluoropropan-2-yl]-4H,5H,6H,7H-pyrazolo[1,5-a]pyrazine-3-carboxamide], in data set [1], the IC50 was < 5 µM. Moreover, the EC50 in data set [2] was < 1 µM. Further, the CC50 at 6 days in data set [3] was > 10 µM.
On to `CNS(=O)(=O)c1cnn2c1CN(C(=O)c1cc3ccccc3[nH]1)CC2` [Example 41, 5-(1H-indole-2-carbonyl)-N-methyl-4H,5H,6H,7H-pyrazolo[1,5-a]pyrazine-3-sulfonamide], for which, in data set [1], the IC50 was < 5 µM. Moreover, in data set [2], the EC50 was < 1 µM. Besides, the CC50 at 6 days in data set [3] is > 10 µM.
Regarding `O=C(O)c1cccc(F)c1C1CC(=O)N(c2cnn3c2CN(C(=O)c2cc4ccccc4[nH]2)CC3)C1` (stereo not drawn) [Example 88, 3-fluoro-2-{1-[5-(1H-indole-2-carbonyl)-4H,5H,6H,7H-pyrazolo[1,5-a]pyrazin-3-yl]-5-oxopyrrolidin-3-yl}benzoic Acid], in data set [1], the IC50 was < 5 µM. For the same molecule, the EC50 in data set [2] (printed as number instead of class symbol) was > 10 µM. For the same molecule, in data set [3], the CC50 at 6 days is > 10 µM.
In the case of `Cc1c(F)ccc2[nH]c(C(=O)N3CCn4ncc(C(=O)N[C@H](C)C(F)(F)F)c4C3)cc12` [Example 113, 5-(5-fluoro-4-methyl-1H-indole-2-carbonyl)-N-[(2R)-1,1,1-trifluoropropan-2-yl]-4H,5H,6H,7H-pyrazolol[1,5-a]pyrazine-3-carboxamide], the IC50 in data set [1] was < 5 µM. Also, the EC50 in data set [2] is < 1 µM. The CC50 at 6 days in data set [3] is > 10 µM.
As to `CC(C)(C)NC(=O)c1cnn2c1CN(C(=O)c1cc3ccccc3[nH]1)CC2` [Example 87, N-tert-butyl-5-(1H-indole-2-carbonyl)-4H,5H,6H,7H-pyrazolo[1,5-a]pyrazine-3-carboxamide], in data set [1], the IC50 was < 5 µM. For the same molecule, the EC50 in data set [2] was < 1 µM. Besides, in data set [3], the CC50 at 6 days was > 10 µM.
The corresponding values for `O=C(c1cc2ccccc2[nH]1)N1CCn2ncc(S(=O)(=O)NCC3(O)CCC3)c2C1` [Example 27, N-[(1-hydroxycyclobutyl)methyl]-5-(1H-indole-2-carbonyl)-4H,5H,6H,7H-pyrazolo[1,5-a]pyrazine-3-sulfonamide] are 5 to 10 µM, 1 to 10 µM and > 10 µM.
For the molecule `CN1CCN(S(=O)(=O)c2cnn3c2CN(C(=O)c2cc4ccccc4[nH]2)CC3)CC1` [Example 36, 2-{3-[(4-methylpiperazin-1-yl)sulfonyl]-4H,5H,6H,7H-pyrazolo[1,5-a]pyrazine-5-carbonyl}-1H-indole], the IC50 in data set [1] lay within 5 to 10 µM. The EC50 in data set [2] was < 1 µM. Moreover, in data set [3], the CC50 at 6 days is > 10 µM.
Take `CC(C)NS(=O)(=O)c1cnn2c1CN(C(=O)c1cc3ccccc3[nH]1)CC2` [Example 37, 5-(1H-indole-2-carbonyl)-N-(propan-2-yl)-4H,5H,6H,7H-pyrazolo[1,5-a]pyrazine-3-sulfonamide]: the IC50 in data set [1] is < 5 µM. Moreover, the EC50 in data set [2] is < 1 µM. For the same molecule, the CC50 at 6 days in data set [3] was > 10 µM.
The matching figures for `O=C(c1cc2ccccc2[nH]1)N1CCn2ncc(C(=O)N3CCC(F)(F)C3)c2C1` [Example 122, 2-[3-(3,3-difluoropyrrolidine-1-carbonyl)-4H,5H,6H,7H-pyrazolo[1,5-a]pyrazine-5-carbonyl]-1H-indole]: < 5 µM, < 1 µM and > 10 µM.
For `O=C(c1cc2c(Cl)cccc2[nH]1)N1CCn2ncc(C(=O)N3CCC(O)CC34CC4)c2C1` (stereo not drawn) [Example 118, 4-[5-(4-chloro-1H-indole-2-carbonyl)-4H,5H,6H,7H-pyrazolo[1,5-a]pyrazine-3-carbonyl]-4-azaspiro[2.5]octan-7-ol], the IC50 in data set [1] was < 5 µM. The EC50 in data set [2] is < 1 µM. Moreover, the CC50 at 6 days in data set [3] is > 10 µM.
